Reference: US7250441B2, “Carbazole and cyclopentaindole derivatives to treat infection with Hepatitis C virus” (priority 2004, dated 2007)

Molecular target: T1, HCV RdRp NS5B d21BK (NS5B from the BK strain, genotype 1b) (Hepatitis C virus genotype 1b, UniProt P26663)
T1 construct: NS5B from the BK strain (genotype 1b) is expressed in E coli as a protein in which the 21 C-terminal amino acids are replaced; made in house; host or cells: E. coli
Experiment: Hepatitis C polymerase inhibition assay, radioactive nucleotide incorporation with filter capture
Format: biochemical
Description: The ability of the compounds of formula (I) to inhibit Hepatitis C Polymerase was established by the following experimental procedure.
NS5B from the BK strain (genotype 1b) is expressed in E coli as a protein in which the 21 C-terminal amino acids are replaced with a short linker and a hexahistidine tag ([…]). The purified protein is mixed with radioactive nucleotides and allowed to replicate a heteropolymeric RNA substrate, primed by an endogenous short hairpin, resulting in an approximately 760 nt product. The radioactive product is captured on a filter and quantitated after removal of the unincorporated nucleotides.
(1) Compounds 10 μl at 10 μg/ml in 15% dimethylsulfoxide (DMSO)
When starting from 100 μg/ml compound stock in 1% DMSO, 5 μl 30% DMSO is dispensed per well. Next, 5 μl compound (100 μg/ml) is dispensed per well.
When starting from 50 μg/ml compound stock in 15% DMSO, 10 μl compound is added per well.
20 μl enzyme mix is added into each well of the assay plate. The compound and enzyme are incubated at room temperature for 15 minutes.
(3) Template mix (prepared in advance)
A tube of RNA (5 μg/tube stored in 75% ethanol and 0.3 M sodium acetate) is microcentrifuged for 20 minutes at 4° C. (one tube supplies 1-1.5 plates). Ethanol is removed from the tube by gently inverting the tube. The RNA is vacuum dried and re-suspended in 1 ml of DEPC water in a tightly capped tube. To dissolve RNA, the RNA solution is incubated on ice for ˜60 minutes and gently vortexed. It is spun briefly to ensure all RNA solution at the bottom of the tube before opening cap. The RNA solution is then gently transferred into a 5 ml or larger tube. Another 3 ml of DEPC water is added to obtain a total of 4 ml of volume.
The following volumes of reagents are added:
20 μl template mix per reaction is added (i.e. 20 ng of pOF per reaction or ˜3 nM)
(4) The reaction is incubated at room temperature (22-25° C.) for 2 hours.
(5) The reaction is quenched by adding 50 μl of 170 mM EDTA.
Final concentration of EDTA is 85 mM.
(6) The filters of Millipore multiscreen assay plate is pre-wet by adding 200 μl of 0.5 M sodium phosphate buffer, pH 7.0 into each well. This stands at room temperature for 2-3 minutes.
(7) The multiscreen filter plate is placed onto a Millipore Manifold under vacuum to allow buffer to flow through. After the vacuum is turned off, 80 μl of the reaction product is transferred into each well of the filter plate. This stands for 2-3 minutes prior to turning on the vacuum again to filter the reaction product.
(8) The vacuum is then removed. 200 μl of 0.5 M sodium phosphate buffer is added, pH 7.0, into each well. The vacuum is then turned on.
Step (8) is repeated three more times.
(9) Next the polypropylene bottom is removed, and the filter is spot dried with a paper towel. The filter plate is air-dried on a bench for 1 hour before adding 40 μl Super Mix scintillant. The top of the plate is sealed with a tape and the plate is placed into a Packard carrier or micro-beta carrier.
(10) The plate is counted using a Packard Topcount or micro-beta counter. Count (for example using Program 10) for ^33P in Top count or ^33P program in micro-beta.
The percent inhibition is calculated after background subtraction as a percent reduction of activity relative to the positive control (average value of the plate excluding the negative controls). For the primary screen hits were chosen as showing >75% inhibition.
See, Ferrari et al. 1999. J. Virology 73:1649-1654: “Characterization of soluble Hepatitis C virus RNA-dependent RNA polymerase expressed in E. coli and Takamizawa et al 1991” and J. Virology 65:1105-1113: “Structure and characterization of Hepatitis C virus genome isolated from human carriers,” both reference are hereby incorporated by reference.

T1 sequence (P26663 2420-2989): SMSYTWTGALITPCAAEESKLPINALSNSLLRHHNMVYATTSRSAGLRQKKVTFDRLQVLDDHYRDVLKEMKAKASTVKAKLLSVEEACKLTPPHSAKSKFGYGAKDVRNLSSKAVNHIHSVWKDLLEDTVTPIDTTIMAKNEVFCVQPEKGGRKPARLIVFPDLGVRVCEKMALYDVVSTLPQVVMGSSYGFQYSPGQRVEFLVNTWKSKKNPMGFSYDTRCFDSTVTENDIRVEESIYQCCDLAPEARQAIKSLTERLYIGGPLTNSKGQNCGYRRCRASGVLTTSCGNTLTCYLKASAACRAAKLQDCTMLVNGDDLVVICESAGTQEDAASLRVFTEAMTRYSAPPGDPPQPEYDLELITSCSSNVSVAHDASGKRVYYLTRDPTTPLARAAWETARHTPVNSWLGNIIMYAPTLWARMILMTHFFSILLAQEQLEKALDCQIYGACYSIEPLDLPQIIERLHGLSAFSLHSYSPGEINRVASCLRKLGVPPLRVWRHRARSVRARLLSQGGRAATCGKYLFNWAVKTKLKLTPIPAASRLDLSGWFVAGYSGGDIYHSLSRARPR

Structure (SMILES) | IC50
C=CCC1(C(=O)O)CCc2c1[nH]c1c(Cl)ccc(Cl)c21 (centres unmarked) [Example 1, 3-Allyl-5,8-dichloro-1,2,3,4-tetrahydro-cyclopenta[b]indole-3-carboxylic acid] | 1.2 µM
CCCCC1(C(=O)O)CCc2c1[nH]c1c(Cl)ccc(Cl)c21 (centres unmarked) [Example 2, 3-Butyl-5,8-dichloro-1,2,3,4-tetrahydro-cyclopenta[b]indole-3-carboxylic acid] | 1.9 µM
CCCC1(C(=O)O)CCc2c1[nH]c1c(Cl)ccc(Cl)c21 (centres unmarked) [Example 3, 5,8-Dichloro-3-propyl-1,2,3,4-tetrahydro-cyclopenta[b]indole-3-carboxylic acid] | 0.55 µM
CCCCC1(C(=O)O)CCc2c1[nH]c1c(C)ccc(Br)c21 (centres unmarked) [Example 4, 8-Bromo-3-butyl-5-methyl-1,2,3,4-tetrahydro-cyclopenta[b]indole-3-carboxylic acid] | 6.7 µM
CCCCC1(C(=O)O)CCc2c1[nH]c1c(F)ccc(Br)c21 (centres unmarked) [Example 5, 8-Bromo-3-butyl-5-fluoro-1,2,3,4-tetrahydro-cyclopenta[b]indole-3-carboxylic acid] | 5.8 µM
CCCCC1(C(=O)O)CCc2c1[nH]c1c(C)cc(F)c(Br)c21 (centres unmarked) [Example 6, 8-Bromo-3-butyl-7-fluoro-5-methyl-1,2,3,4-tetrahydro-cyclopenta[b]indole-3-carboxylic acid] | 2.1 µM
CCCCC1(C(=O)O)CCc2c1[nH]c1c(C)cc(F)cc21 (centres unmarked) [Example 7, 3-Butyl-7-fluoro-5-methyl-1,2,3,4-tetrahydro-cyclopenta[b]indole-3-carboxylic acid] | 9.1 µM
C=CCC1(C(=O)O)CCc2c1[nH]c1c(C)ccc(Br)c21 (centres unmarked) [Example 8, 3-Allyl-8-bromo-5-methyl-1,2,3,4-tetrahydro-cyclopenta[b]indole-3-carboxylic acid] | 5.7 µM
C=CCC1(C(=O)O)CCc2c1[nH]c1c(F)ccc(Br)c21 (centres unmarked) [Example 9, 3-Allyl-8-bromo-5-fluoro-1,2,3,4-tetrahydro-cyclopenta[b]indole-3-carboxylic acid] | 6.4 µM
C=CCC1(C(=O)O)CCc2c1[nH]c1c(C)cc(F)c(Br)c21 (centres unmarked) [Example 10, 3-Allyl-8-bromo-7-fluoro-5-methyl-1,2,3,4-tetrahydro-cyclopenta[b]indole-3-carboxylic acid] | 3.2 µM
CCCC1(C(=O)O)CCc2c1[nH]c1c(C)ccc(Br)c21 (centres unmarked) [Example 11, 8-Bromo-5-methyl-3-propyl-1,2,3,4-tetrahydro-cyclopenta[b]indole-3-carboxylic acid] | 1.9 µM
CCCC1(C(=O)O)CCc2c1[nH]c1c(F)ccc(Br)c21 (centres unmarked) [Example 12, 8-Bromo-5-fluoro-3-propyl-1,2,3,4-tetrahydro-cyclopenta[b]indole-3-carboxylic acid] | 2.9 µM
CCCC1(C(=O)O)CCc2c1[nH]c1c(C)cc(F)c(Br)c21 (centres unmarked) [Example 13, 8-Bromo-7-fluoro-5-methyl-3-propyl-1,2,3,4-tetrahydro-cyclopenta[b]indole-3-carboxylic acid] | 2 µM
C=CCC1(C(=O)O)CCc2c1[nH]c1c(F)ccc(C#N)c21 (centres unmarked) [Example 14, 3-Allyl-8-cyano-5-fluoro-1,2,3,4-tetrahydro-cyclopenta[b]indole-3-carboxylic acid] | 14.5 µM
CCCCC1(C(=O)O)CCc2c1[nH]c1c(C)ccc(C#N)c21 (centres unmarked) [Example 15, 3-Butyl-8-cyano-5-methyl-1,2,3,4-tetrahydro-cyclopenta[b]indole-3-carboxylic acid] | 4.6 µM
CCCCC1(C(=O)O)CCc2c1[nH]c1c(F)ccc(C#N)c21 (centres unmarked) [Example 16, 3-Butyl-8-cyano-5-fluoro-1,2,3,4-tetrahydro-cyclopenta[b]indole-3-carboxylic acid] | 5.4 µM

Structure (SMILES) | IC50
CCCCC1(C(=O)O)CCc2c1[nH]c1c(C)cc(F)c(C#N)c21 (centres unmarked) [Example 17, 3-Butyl-8-cyano-7-fluoro-5-methyl-1,2,3,4-tetrahydro-cyclopenta[b]indole-3-carboxylic acid] | 1.5 µM
C=CCC1(C(=O)O)CCc2c1[nH]c1c(C)ccc(C#N)c21 (centres unmarked) [Example 18, 3-Allyl-8-cyano-5-methyl-1,2,3,4-tetrahydro-cyclopenta[b]indole-3-carboxylic acid] | 11 µM
C=CCC1(C(=O)O)CCc2c1[nH]c1c(C)cc(F)c(C#N)c21 (centres unmarked) [Example 19, 3-Allyl-8-cyano-7-fluoro-5-methyl-1,2,3,4-tetrahydro-cyclopenta[b]indole-3-carboxylic acid] | 6.3 µM
CCCC1(C(=O)O)CCc2c1[nH]c1c(C)ccc(C#N)c21 (centres unmarked) [Example 20, 8-Cyano-5-methyl-3-propyl-1,2,3,4-tetrahydro-cyclopenta[b]indole-3-carboxylic acid] | 4.7 µM
CCCC1(C(=O)O)CCc2c1[nH]c1c(F)ccc(C#N)c21 (centres unmarked) [Example 21, 8-Cyano-5-fluoro-3-propyl-1,2,3,4-tetrahydro-cyclopenta[b]indole-3-carboxylic acid] | 8.1 µM
CCCC1(C(=O)O)CCc2c1[nH]c1c(C)cc(F)c(C#N)c21 (centres unmarked) [Example 22, 8-Cyano-7-fluoro-5-methyl-3-propyl-1,2,3,4-tetrahydro-cyclopenta[b]indole-3-carboxylic acid] | 1.8 µM
CCC1(C(=O)O)CCCc2c1[nH]c1c(Cl)ccc(Cl)c21 (centres unmarked) [Example 23, 5,8-Dichloro-1-ethyl-2,3,4,9-tetrahydro-1H-carbazole-1-carboxylic acid] | 9.7 µM
CCCC1(C(=O)O)CCCc2c1[nH]c1c(Cl)ccc(Cl)c21 (centres unmarked) [Example 24, 5,8-Dichloro-1-propyl-2,3,4,9-tetrahydro-1H-carbazole-1-carboxylic acid] | 3.2 µM
CCCC1(C(=O)O)CCCc2c1[nH]c1c(F)ccc(C#N)c21 (centres unmarked) [Example 25, 5-Cyano-8-fluoro-1-propyl-2,3,4,9-tetrahydro-1H-carbazole-1-carboxylic acid] | 10 µM
N#Cc1ccc(F)c2[nH]c3c(c12)CCCC3(CC1CCC1)C(=O)O (centres unmarked) [Example 26, 5-Cyano-1-cyclobutylmethyl-8-fluoro-2,3,4,9-tetrahydro-1H-carbazole-1-carboxylic acid] | 16 µM
CCCC1(C(=O)O)CCCc2c1[nH]c1c(Cl)ccc(C(F)(F)F)c21 (centres unmarked) [Example 27, 8-Chloro-1-propyl-5-trifluoromethyl-2,3,4,9-tetrahydro-1H-carbazole-1-carboxylic acid] | 5.8 µM
CCCC1(C(=O)O)CCCc2c1[nH]c1c(C)ccc(C#N)c21 (centres unmarked) [Example 28, 5-Cyano-8-methyl-1-propyl-2,3,4,9-tetrahydro-1H-carbazole-1-carboxylic acid] | 15 µM
C=CCC1(CC(=O)O)CCCc2c1[nH]c1c(F)ccc(F)c21 (centres unmarked) [Example 29, (1-Allyl-5,8-difluoro-2,3,4,9-tetrahydro-1H-carbazol-1-yl)-acetic acid] | 32 µM
CCCC1(CC(=O)O)CCCc2c1[nH]c1cc(F)cc(F)c21 (centres unmarked) [Example 30, (5,7-Difluoro-1-propyl-2,3,4,9-tetrahydro-1H-carbazol-1-yl)-acetic acid] | 30.7 µM
C=CCC1(CC(=O)O)CCCc2c1[nH]c1c(F)ccc(C#N)c21 (centres unmarked) [Example 31, (1-Allyl-5-cyano-8-fluoro-2,3,4,9-tetrahydro-1H-carbazol-1-yl)-acetic acid] | 0.37 µM
CCCC1(CC(=O)O)CCCc2c1[nH]c1c(F)ccc(C#N)c21 (centres unmarked) [Example 32, (5-Cyano-8-fluoro-1-propyl-2,3,4,9-tetrahydro-1H-carbazol-1-yl)-acetic acid] | 2 µM
